Measured values taken from PubChem BioAssay AID200 (DTP/NCI, 2004).
Values joined by “and” are separate entries in the source; they are usually repeats but may differ in a detail not shown here. Identical values can stand only once. Inconclusive results and toxic doses are left out.

Tested on: B6C3F1 mice, B16 melanoma ip, median survival T/C
Assay: NCI In Vivo Anticancer Drug Screen. Data for tumor model B16 Melanoma (intraperitoneal) in B6C3F1 mice
Conditions: endpoint: median survival time, higher = longer survival
Description: The antitumor activity of compounds was measured in mice bearing transplantable tumors. Survival or tumor size were measured and the results are expressed as the measurement made in the treated group (T) divided by the measurement made in the vehicle treated control group (C). The tumor model used in this assay is B16 Melanoma (intraperitoneal) in B6C3F1 mice

[1] = dose: 25.0 mg/kg/injection, schedule: Q01DX009 (ip), vehicle: saline with Tween-80
[2] = dose: 50.0 mg/kg/injection, schedule: Q01DX009 (ip), vehicle: saline with Tween-80
[3] = dose: 100.0 mg/kg/injection, schedule: Q01DX009 (ip), vehicle: saline with Tween-80
[4] = dose: 200.0 mg/kg/injection, schedule: Q01DX009 (ip), vehicle: saline with Tween-80
[5] = dose: 12.5 mg/kg/injection, schedule: Q01DX009 (ip), vehicle: Klucel (hydroxypropylcellulose) (HPC)
[6] = dose: 25.0 mg/kg/injection, schedule: Q01DX009 (ip), vehicle: Klucel (hydroxypropylcellulose) (HPC)
[7] = dose: 50.0 mg/kg/injection, schedule: Q01DX009 (ip), vehicle: Klucel (hydroxypropylcellulose) (HPC)
[8] = dose: 100.0 mg/kg/injection, schedule: Q01DX009 (ip), vehicle: Klucel (hydroxypropylcellulose) (HPC)
[9] = dose: 200.0 mg/kg/injection, schedule: Q01DX009 (ip), vehicle: Klucel (hydroxypropylcellulose) (HPC)
[10] = dose: 50.0 mg/kg/injection, schedule: Q01DX009 (ip), vehicle: saline
[11] = dose: 200.0 mg/kg/injection, schedule: Q01DX009 (ip), vehicle: saline
[12] = dose: 100.0 mg/kg/injection, schedule: Q01DX009 (ip), vehicle: saline
[13] = dose: 12.5 mg/kg/injection, schedule: Q01DX009 (ip), vehicle: saline with Tween-80
[14] = dose: 6.25 mg/kg/injection, schedule: Q01DX009 (ip), vehicle: Klucel (hydroxypropylcellulose) (HPC)

In the case of `Cc1c(N)nc([C@H](CC(N)=O)NC[C@H](N)C(N)=O)nc1C(=O)N[C@H](C(=O)N[C@H](C)[C@@H](O)CC(=O)N[C@H](C(=O)NC(O[C@@H]1O[C@@H](C)[C@@H](N)[C@@H](O)[C@H]1O)C(O)c1nc(-c2nc(C(=O)NCCCCN)cs2)cs1)[C@@H](C)O)[C@@H](O[C@@H]1O[C@@H](CO)[C@@H](O)[C@H](O)[C@@H]1O[C@H]1O[C@H](CO)[C@@H](O)[C@H](OC(N)=O)[C@@H]1O)c1c[nH]cn1` (stereo partly drawn), the T/C (dose: 0.25 mg/kg/injection, schedule: Q01DX009 (ip), vehicle: saline) is reported as 104 % of control, the T/C (dose: 0.4 mg/kg/injection, schedule: Q01DX009 (ip), vehicle: saline) is reported as 116 % of control and 94 % of control and the T/C (dose: 0.5 mg/kg/injection, schedule: Q01DX009 (ip), vehicle: saline) is reported as 107 % of control. The T/C (dose: 0.8 mg/kg/injection, schedule: Q01DX009 (ip), vehicle: saline) was 94 % of control, the T/C (dose: 1.0 mg/kg/injection, schedule: Q01DX009 (ip), vehicle: saline) was 115 % of control and the T/C (dose: 1.6 mg/kg/injection, schedule: Q01DX009 (ip), vehicle: saline) was 98 % of control. For the same compound, the T/C (dose: 2.0 mg/kg/injection, schedule: Q01DX009 (ip), vehicle: saline) was 114 % of control, the T/C (dose: 3.2 mg/kg/injection, schedule: Q01DX009 (ip), vehicle: saline) was 101 % of control and the T/C (dose: 4.0 mg/kg/injection, schedule: Q01DX009 (ip), vehicle: saline) was 121 % of control. The T/C (dose: 6.4 mg/kg/injection, schedule: Q01DX009 (ip), vehicle: saline) was 97 % of control.

`Cc1ncc(CO)c(CO)c1O` was tested, and the T/C (dose: 50.0 mg/kg/injection, schedule: Q03HX009 (ip), vehicle: suspension in saline) was 106 % of control, the T/C (dose: 100.0 mg/kg/injection, schedule: Q03HX009 (ip), vehicle: suspension in saline) was 102 % of control and the T/C (dose: 200.0 mg/kg/injection, schedule: Q03HX009 (ip), vehicle: suspension in saline) was 102 % of control. For the same compound, the T/C (dose: 400.0 mg/kg/injection, schedule: Q03HX009 (ip), vehicle: suspension in saline) was 98 % of control and the T/C (dose: 800.0 mg/kg/injection, schedule: Q03HX009 (ip), vehicle: suspension in saline) was 96 % of control.

In the case of `Cc1cc2c(c3oc(C4(C)OC4C4OC4C)cc(=O)c13)C(=O)c1c(O)c(C3CC(C)(N(C)C)C(O)C(C)O3)cc(C3CC(N(C)C)C(O)C(C)O3)c1C2=O` (stereo not drawn), the T/C (dose: 2.0 micrograms/kg/injection, schedule: Q01DX009 (ip), vehicle: Klucel (hydroxypropylcellulose) (HPC)) is reported as 123 % of control and the T/C (dose: 4.0 micrograms/kg/injection, schedule: Q01DX009 (ip), vehicle: Klucel (hydroxypropylcellulose) (HPC)) is reported as 118 % of control.

In the case of `N#CCS(=O)(=O)c1cccc[n+]1[O-]`, the T/C [1] is reported as 102 % of control, the T/C [2] is reported as 101 % of control and the T/C [3] is reported as 117 % of control. The T/C [4] was 121 % of control.

With `Cc1c(-c2ccc(-c3ccccc3F)cc2)nc2ccc(F)cc2c1C(=O)O` the T/C (dose: 6.25 mg/kg/injection, schedule: Q01DX009 (ip), vehicle: water) was 118 % of control and 102 % of control, the T/C (dose: 12.5 mg/kg/injection, schedule: Q01DX009 (ip), vehicle: water) was 107 % of control and the T/C (dose: 25.0 mg/kg/injection, schedule: Q01DX009 (ip), vehicle: water) was 124 % of control.

In the case of `C[Si](C)(C)O/C=C1/CCOC1=O`, the T/C [5] is reported as 104 % of control, the T/C [6] is reported as 93 % of control and the T/C [7] is reported as 95 % of control. The T/C [8] was 95 % of control and the T/C [9] was 106 % of control.

In the case of `O=C1N(CC2CO2)CCN1CC1CO1` (stereo not drawn), the T/C (dose: 12.5 mg/kg/injection, schedule: Q01DX009 (ip), vehicle: saline) is reported as 117 % of control and 97 % of control, the T/C (dose: 12.5 mg/kg/injection, schedule: Q01DX009 (ip), vehicle: suspension in saline) is reported as 114 % of control and the T/C (dose: 25.0 mg/kg/injection, schedule: Q01DX009 (ip), vehicle: saline) is reported as 118 % of control and 107 % of control. For the same compound, the T/C (dose: 25.0 mg/kg/injection, schedule: Q01DX009 (ip), vehicle: suspension in saline) was 124 % of control, the T/C [10] was 115 % of control and the T/C (dose: 50.0 mg/kg/injection, schedule: Q01DX009 (ip), vehicle: suspension in saline) was 165 % of control. For the same compound, the T/C (dose: 100.0 mg/kg/injection, schedule: Q01DX009 (ip), vehicle: suspension in saline) was 90 % of control and the T/C [11] was 122 % of control.

`CC(C)C(NC(=O)C(F)(F)F)C(=O)O` (stereo not drawn) was tested, and the T/C [10] was 96 % of control and the T/C [12] was 89 % of control.

With `COC1=CCC23C(=O)C=CC(=O)C2(C1)C(=O)c1ccccc1C3=O` (stereo not drawn) the T/C (dose: 1.56 mg/kg/injection, schedule: Q01DX009 (ip), vehicle: saline with Tween-80) was 99 % of control, the T/C (dose: 3.12 mg/kg/injection, schedule: Q01DX009 (ip), vehicle: saline with Tween-80) was 96 % of control and the T/C (dose: 6.25 mg/kg/injection, schedule: Q01DX009 (ip), vehicle: saline with Tween-80) was 93 % of control. The T/C [13] was 94 % of control.

With `Cc1ccc2c(c1)C1(C)OC(C=CC1=O)O2` (stereo not drawn) the T/C (dose: 3.12 mg/kg/injection, schedule: Q01DX009 (ip), vehicle: Klucel (hydroxypropylcellulose) (HPC)) was 104 % of control, the T/C [14] was 115 % of control and the T/C [5] was 104 % of control. For the same compound, the T/C [6] was 112 % of control and 105 % of control.

For `O=C1C=C2C(=CCOC2O)O1` (stereo not drawn), the T/C (dose: 0.25 mg/kg/injection, schedule: Q01DX009 (ip), vehicle: Klucel (hydroxypropylcellulose) (HPC)) was 95 % of control and 97 % of control, the T/C (dose: 0.5 mg/kg/injection, schedule: Q01DX009 (ip), vehicle: Klucel (hydroxypropylcellulose) (HPC)) was 94 % of control and 98 % of control and the T/C (dose: 1.0 mg/kg/injection, schedule: Q01DX009 (ip), vehicle: Klucel (hydroxypropylcellulose) (HPC)) was 99 % of control and 100 % of control. For the same compound, the T/C (dose: 2.0 mg/kg/injection, schedule: Q01DX009 (ip), vehicle: Klucel (hydroxypropylcellulose) (HPC)) was 97 % of control and the T/C (dose: 4.0 mg/kg/injection, schedule: Q01DX009 (ip), vehicle: Klucel (hydroxypropylcellulose) (HPC)) was 91 % of control.

`O=C(CN1CCOCC1)Nc1nc(-c2ccc(Cl)cc2)cs1` was tested, and the T/C [13] was 105 % of control, the T/C [1] was 94 % of control and the T/C [2] was 96 % of control. For the same compound, the T/C [3] was 103 % of control and the T/C [4] was 98 % of control.

In the case of `COC(=O)Nc1cn2cc(C(=O)c3cccs3)ccc2n1`, the T/C [14] is reported as 122 % of control, the T/C [6] is reported as 159 % of control and 175 % of control and the T/C (dose: 50.0 mg/kg/injection, schedule: Q01DX009 (ip), vehicle: other) is reported as 179 % of control.

`S=C(S)NN1CCOCC1` was tested, and the T/C [12] was 98 % of control, the T/C [11] was 99 % of control and the T/C (dose: 400.0 mg/kg/injection, schedule: Q01DX009 (ip), vehicle: saline) was 96 % of control.

`O=c1[nH]c(=O)n(C2CC(O)C(CO)O2)cc1Br` (stereo not drawn) was tested, and the T/C [6] was 92 % of control, the T/C [7] was 110 % of control and the T/C [8] was 110 % of control. For the same compound, the T/C [9] was 116 % of control, the T/C (dose: 400.0 mg/kg/injection, schedule: Q01DX009 (ip), vehicle: Klucel (hydroxypropylcellulose) (HPC)) was 114 % of control and the T/C (dose: 800.0 mg/kg/injection, schedule: Q01DX009 (ip), vehicle: Klucel (hydroxypropylcellulose) (HPC)) was 109 % of control.

In the case of `Cc1c2ccccc2c(C)c2c1cc(C(=O)O)c1ccccc12`, the T/C (dose: 25.0 mg/kg/injection, schedule: Q01DX009 (ip), vehicle: sodium bicarbonate) is reported as 99 % of control, the T/C (dose: 50.0 mg/kg/injection, schedule: Q01DX009 (ip), vehicle: sodium bicarbonate) is reported as 105 % of control and the T/C (dose: 100.0 mg/kg/injection, schedule: Q01DX009 (ip), vehicle: sodium bicarbonate) is reported as 108 % of control. The T/C (dose: 200.0 mg/kg/injection, schedule: Q01DX009 (ip), vehicle: sodium bicarbonate) was 109 % of control and the T/C (dose: 400.0 mg/kg/injection, schedule: Q01DX009 (ip), vehicle: sodium bicarbonate) was 101 % of control.

`CCCCNC(C)[C@]1(O)Cc2c(O)c3c(c(O)c2[C@@H](OC2CC(N)C(O)C(C)O2)C1)C(=O)c1c(OC)cccc1C3=O` (stereo partly drawn) was tested, and the T/C (dose: 0.75 mg/kg/injection, schedule: Q01DX009 (ip), vehicle: saline) was 162 % of control and 163 % of control, the T/C (dose: 1.5 mg/kg/injection, schedule: Q01DX009 (ip), vehicle: saline) was 211 % of control and 232 % of control and the T/C (dose: 3.0 mg/kg/injection, schedule: Q01DX009 (ip), vehicle: saline) was 235 % of control and 333 % of control. For the same compound, the T/C (dose: 6.0 mg/kg/injection, schedule: Q01DX009 (ip), vehicle: saline) was 229 % of control and 95 % of control.
